In patent US9085557B2, “Quinolylpiperazino substituted thiolactone compounds and process for the preparation thereof” (Council of Scientific and Industrial Research, priority 2010, dated 2015):
In brackets after ≈: the same amount, converted by molar mass.

Assays:
[1] = test system: M. tuberculosis -617 (MDR- strain); assay: microbe, parasite or virus in culture; type: cell-based, Mycobacterium tuberculosis; details: for in vitro activity (words): MDR clinical isolates
[2] = test system: M. tuberculosis H37Rv (ATCC 27294); assay: MIC determination by broth dilution against M. tuberculosis H37Rv; type: cell-based, Mycobacterium tuberculosis; details: for in vitro activity (words): M. tuberculosis H37Rv / sensitive isolates
[3] = test system: M. tuberculosis XDR-1 (XDR- strain); assay: microbe, parasite or virus in culture; type: cell-based, Mycobacterium tuberculosis; details: for in vitro activity (words): XDR clinical isolates
AML-12 cells = assay: Cytotoxicity assay (MTT) on cell line AML-12; type: cell-based
Experimental: The study was carried out using AML-12 cells line (ATCC-USA). Cells were grown in Dulbecco's Modified Eagle's Medium (DMEM) containing 10% fetal calf serum (FCS) and supplemented with 100 units/ml penicillin, 100 μg/ml streptomycin, 0.005 mg/ml insulin, 0.005 mg/ml transferrin, 5 ng/ml selenium, and 40 ng/ml dexamethasone, in a humidified atmosphere in 5% CO2 at 37° C., and were sub-cultured at 1:5 ratio once a week.
Cells were plated at a density of 3×10^4 cells/cm^2 and maintained in culture medium for 12 h after trypsinization. Cells were seeded onto 96-well plates and FCS was reduced to 5% for the experiment. Stock solutions of compound 3f were prepared fresh to avoid oxidation. Cells were incubated with the compounds (2-100 μg/ml) for 24 hrs.
After the completion of treatment, the medium was removed and cell viability was evaluated by assaying for the ability of functional mitochondria to catalyze the reduction of 3-(4,5-dimethylthiazol-2-yl)-2,5-diphenyltetrazolium bromide (MTT) to form formazan salt by mitochondrial dehydrogenases, and determined by Elisa reader at 565 nm (Multiskan Spectrum; Thermo Electron Corporation, USA). Percentage cytotoxicity was calculated with respect to the untreated cells.

M. tuberculosis H37Rv = assay: In vivo efficacy in murine model of M. tuberculosis H37Rv infection; design: species or system mice (BALB/c)
Experimental: The Compound 3f used in this study ([…]). The compound 3f was tested in vivo at 25 mg/kg. Rifampicin at 20 mg/kg was also tested as positive control. For in vivo studies compound and rifampicin was dissolved in pure DMSO and formulation was prepared 50% PEG in water for oral administration. The final concentration of DMSO was less than 0.1% v/v.
The institutional animal Ethics committee of the Indian Institute of Integrative Medicine (CSIR, Jammu) approved all experimental protocols with animals and the use of animals. The animals were bred and maintained under standard husbandry conditions; viz. humidity, temperature (25±2° C.). 8-week-old female (BALB/c) mice 20-22 gm by weight were used for the efficacy studies. Animals were allowed 1 week of acclimation before intake into experimental studies. Feed and water were given ad libitum.
Infection of M. tuberculosis:
M. tuberculosis (H37Rv) for infection was grown by the culturing of bacteria from Lowenstein-Jensen slant in Middlebrooke 7H9 medium on a rotary shaker for 10 days at 37° C. […] The mice were sacrificed after week post infection (early control), and bacterial numbers in the lungs were determined by macerating the organs (lung) and plating serial tenfold serial dilution on Middlebrook 7H10 agar plates in triplicates. […]
Eight infected mice were sacrificed from the control group 7 day after the infection (before the initiation of treatment) to obtain the initial CFU load of M. tuberculosis H37Rv at the initiation of treatment. […] Viable bacteria were quantitated by plating 10-fold serial dilutions in duplicates on Middlebrook, 7H10 agar supplemented with 10% OADC (oleic acid albumin dextrose catalase, Becton Dickinson, Sparks, Md.) and incubated at 37° C. in 5% CO2 for 4-6 weeks. CFU per organ sample was counted and expressed as log10 CFU per organ. CFU during in-vivo studies were determined on Middlebrook 7H10 plates supplement with 10% OADC containing Vancomycin 10 μg/ml, Amphoterecin 10 μg/ml, Nalidaxic acid 25 μg/ml. […]

Structure (SMILES): CC1=C(OCCCCCCCCCCCCN2CCN(c3ccnc4cc(C(F)(F)F)ccc34)CC2)C(C)SC1=O (stereo not drawn) [Compound 3f, 3,5-dimethyl-4-[(12-4-[7-(trifluoromethyl)-4-quinolyl]piperazinododecyl)oxy]-5H-thiophen-2-one]
- MIC ([1]; M. tuberculosis 617 MDR clinical isolate, broth dilution, 3 weeks): 0.5 mg/L (≈ 0.845 µM)
- in vitro activity (words) ([1]; listed as Compound 3f): active
- in vitro activity (words) ([1]; listed as compound 3f): exhibits in vitro activity
- in vitro activity (words) ([2]; listed as Compound 3f): active
- in vitro activity (words) ([2]; listed as compound 3f): exhibits in vitro activity
- MIC ([2]; M. tuberculosis H37Rv, broth dilution, 3 weeks at 37° C., read visually (no turbidity)): 0.5 mg/L (≈ 0.845 µM)
- MIC ([3]; M. tuberculosis XDR-1 clinical isolate, broth dilution, 3 weeks): 0.5 mg/L (≈ 0.845 µM)
- in vitro activity (words) ([3]; listed as Compound 3f): active
- in vitro activity (words) ([3]; listed as compound 3f): exhibits in vitro activity
- IC50 (extrapolate), cytotoxicity on AML-12 (AML-12 cells): IC50 > 433 μg/ml (extrapolate)
- type of in vivo activity (log CFU in lungs versus early control) (M. tuberculosis H37Rv; 25 mg/kg oral, 4 weeks): bacteriostatic activity
- Log10 CFU/left Lung (mean ± SD) (M. tuberculosis H37Rv; BALB/c mice, intranasal infection, treatment from 1 week post infection, PO once daily for 4 weeks, RIF 20 mg/kg, 3f 25 mg/kg): 6.2 ± 0.34 Log10 CFU/left Lung
